Results reported in patent publication US9758459B2, “Allosteric modulators of factor XIa as anticoagulant agents” (VIRGINIA COMMONWEALTH UNIVERSITY, priority 2012, dated 2017).
Where “and” joins values, the source holds several entries; their conditions need not be identical. Identical values can stand only once.

Assays:
Type in all cases: biochemical
[1] = target: T1, human factor XIa (Homo sapiens, UniProt P03951); test: Direct inhibition of factor XIa, chromogenic substrate S-2366 hydrolysis assay
T1 construct: purchased Haematologic Technologies (Essex Junction, Vt.); host or cells: human plasma
Method: Solvent A consisted of 25 mM n-hexylamine in water containing 0.1% (v/v) formic acid, while solvent B consisted of 25 mM n-hexylamine in acetonitrile-water mixture (3:1 v/v) containing 0.1% (v/v) formic acid. […] The sample was first monitored for absorbance in the range of 190-400 nm and then directly introduced into the mass spectrometer. ESI-MS detection was performed in positive ion mode for which the capillary voltage was 4 kV, cone voltage was 20 V, desolvation temperature was 350° C. and nitrogen gas flow was maintained at 650 L/hr. Mass scans were collected in the range of 1000-2048 amu within 0.25 s and several of these added to enhanced signal-to-noise ratio. Direct Inhibition of Factor XIa. […] After 10 min incubation, 5 μL factor XIa substrate (345 μM) was rapidly added and the residual FXIa activity was measured from the initial rate of increase in absorbance at 405 nm. […] Relative residual FXIa activity at each concentration of the inhibitor was calculated from the ratio of FXIa activity in the presence and absence of the inhibitor. Logistic equation 1 was used to fit the dose-dependence of residual protease activity to obtain the potency (IC50) and efficacy (ΔY) of inhibition.
Direct Inhibition of Factor XIa by Sulfated QAOs was performed as described in Example 1.
The ability of the sulfated inositol analogs to inhibit factor XIa was studied using the in vitro assay described in Example 1. In this assay, the factor XIa enzyme is anticipated to hydrolyze a particular peptide linkage in the corresponding peptide substrate releasing p-nitroaniline which absorbs at wavelength of 405 nm giving a line slope corresponds to the enzyme activity. The line slope of no inhibitor status is considered as a reference slope and it depends on the relative concentrations of factor XIa enzyme and its substrate. Factor XIa enzyme concentration was decided to get appropriate reference slope of approximately 25-35, whereas the substrate concentration was set to be larger than its affinity to factor XIa enzyme under equilibrium condition, Km. In presence of potential factor XIa inhibitor, the enzyme capacity to hydrolyze the designated peptide linkage in the substrate gets diminished or completely abolished depending on the inhibitor concentration and efficacy. […] Such decreased slope reflects a drop in the catalytic enzyme activity of factor XIa.

[2] = test system: human plasma; test: Activated partial thromboplastin time (APTT) plasma clotting assay; details: human plasma, concentration doubling clotting time
Method: (§1) Plasma clotting assays, prothrombin and activated partial thromboplastin time (PT and APTT, respectively), are routinely used to assess the anticoagulation potential of new enzyme inhibitors in an in vitro setting. Whereas PT measures the effect of an inhibitor on the extrinsic pathway of coagulation, APTT measures the effect on the intrinsic pathway.
(§2) Prothrombin Time (PT) and Activated Partial Thromboplastin Time (APTT) were assessed as described in Example 1.

[3] = test system: human plasma; test: Prothrombin time (PT) plasma clotting assay; details: concentration doubling clotting time
Method: as §1, §2

[4] = target: T2, recombinant wild type FXIa catalytic domain (FXIa-CD) (Homo sapiens, UniProt P03951, C500S); test: 16S inhibition of recombinant FXIa catalytic domain, S2366 hydrolysis
T2 construct: eliminating the bond allows the catalytic domain of FXIa (FXIa-CD) to separate from the heavy chain; made in house; host or cells: HEK-293
Source text: (§3) FIG. 15. […] Solid lines represent sigmoidal dose-response fits.
(§4) Mutagenesis and Expression of Recombinant Factor XIa. Mutations in the FXIa 170 helix were introduced into a modified human FXI cDNA (FXI-Ser-362,482), which contains serine substitutions for Cys362 and Cys482 (FXI numbering), as described earlier in several papers.^7,8 A disulfide bond between these residues connects the heavy chains and catalytic domains after cleavage at the activation site, and eliminating the bond allows the catalytic domain of FXIa (FXIa-CD) to separate from the heavy chain. The basic residues of the FXIa 170-helix, Lys529, Arg530, Arg532, Lys535 and Lys539 in the FXI numbering system (correspond to residues 170, 171, 173, 175 and 179 in the chymotrypsinogen numbering system), were changed to alanine individually and as a group using a Quick Change kit (Stratagene, La Jolla, Calif.). cDNAs in expression vector pJVCMV were used to transfect HEK-293 cells as described. Stably expressing clones were expanded in 175 cm^2 flasks, and serum free media (Cellgro Complete, Mediatech, Herndon, Va.) was collected every 48 hours, supplemented with benzamidine (5 mM) and stored at −80° C. pending purification. Recombinant FXI was purified from conditioned media on an anti-fXI IgG 1G5.12 affinity column. After loading, the column was washed with 25 mM Tris-HCl, pH 7.4, 100 mM NaCl, and eluted with 2M NaSCN in the same buffer. Protein containing fractions were pooled, concentrated and dialyzed, and protein concentrations were determined by dye-binding assay (Bio-Rad). Recombinant wild-type FXI or FXI-CD (˜200-300 μg/ml) was activated with 5 μg/ml FXIIa at 37° C. Completion of activation was confirmed by SDS-PAGE. Activated preparations were passed over a 1G5.12 column to separate the protease from FXIIa. In the case of proteins prepared in FXI-Ser-362,482, the catalytic domains bind to the column, while the heavy chain passes through.
(§5) Heparin binds to FXIa in two sites—in the A3 domain (Lys252, Lys253, and Lys255) and in the catalytic domain (Lys529, Arg530, Arg532, Lys535, and Lys539). […]

[5] = target: T3, Arg530Ala FXIa-CD single mutant (Homo sapiens, UniProt P03951, C500S/R548A); test: 16S inhibition of Arg530Ala FXIa-CD, S2366 hydrolysis; details: Arg530 replaced by Ala
T3 construct: eliminating the bond allows the catalytic domain of FXIa (FXIa-CD) to separate from the heavy chain; made in house; host or cells: HEK-293
Source text: as §3
as §4, with “Recombinant FXI was purified from conditioned media on an anti-fXI IgG 1G5.12 affinity column. After loading, the column was washed with 25 mM Tris-HCl, pH 7.4, 100 mM NaCl, and eluted with 2M NaSCN in the same buffer.” left out, “Recombinant wild-type FXI or FXI-CD (˜200-300 μg/ml) was activated with 5 μg/ml FXIIa at 37° C. Completion of activation was confirmed by SDS-PAGE. Activated preparations were passed over a 1G5.12 column to separate the protease from FXIIa. In the case of proteins prepared in FXI-Ser-362,482, the catalytic domains bind to the column, while the heavy chain passes through.” left out

[6] = target: T4, Lys529Ala,Arg530Ala,Arg532Ala FXIa-CD triple mutant (Homo sapiens, UniProt P03951, C500S/K547A/R548A/R550A); test: 16S inhibition of triple mutant FXIa-CD, S2366 hydrolysis
T4 construct: eliminating the bond allows the catalytic domain of FXIa (FXIa-CD) to separate from the heavy chain; made in house; host or cells: HEK-293
Source text: as §3, §4, §5

[7] = target: T5, Lys535Ala FXIa-CD (Homo sapiens, UniProt P03951, C500S/K553A); test: 16S inhibition of Lys535Ala FXIa-CD; details: not shown
T5 construct: eliminating the bond allows the catalytic domain of FXIa (FXIa-CD) to separate from the heavy chain; made in house; host or cells: HEK-293
Source text: as §4, with “After loading, the column was washed with 25 mM Tris-HCl, pH 7.4, 100 mM NaCl, and eluted with 2M NaSCN in the same buffer.” left out, “Recombinant wild-type FXI or FXI-CD (˜200-300 μg/ml) was activated with 5 μg/ml FXIIa at 37° C. Completion of activation was confirmed by SDS-PAGE. Activated preparations were passed over a 1G5.12 column to separate the protease from FXIIa. In the case of proteins prepared in FXI-Ser-362,482, the catalytic domains bind to the column, while the heavy chain passes through.” left out

[8] = target: T6, Lys539Ala FXIa-CD (Homo sapiens, UniProt P03951, C500S/K557A); test: 16S inhibition of Lys539Ala FXIa-CD; details: not shown
T6 construct: eliminating the bond allows the catalytic domain of FXIa (FXIa-CD) to separate from the heavy chain; made in house; host or cells: HEK-293
Source text: as §4, with “After loading, the column was washed with 25 mM Tris-HCl, pH 7.4, 100 mM NaCl, and eluted with 2M NaSCN in the same buffer.” left out, “Recombinant wild-type FXI or FXI-CD (˜200-300 μg/ml) was activated with 5 μg/ml FXIIa at 37° C. Completion of activation was confirmed by SDS-PAGE. Activated preparations were passed over a 1G5.12 column to separate the protease from FXIIa. In the case of proteins prepared in FXI-Ser-362,482, the catalytic domains bind to the column, while the heavy chain passes through.” left out

[9] = target: T1, human factor XIa; test: Direct inhibition of factor XIa, chromogenic substrate S-2366 hydrolysis assay; details: FXIa-WT, 16S plus 30 μM polybrene

T4 sequence (P03951 388-625 C500S/K547A/R548A/R550A): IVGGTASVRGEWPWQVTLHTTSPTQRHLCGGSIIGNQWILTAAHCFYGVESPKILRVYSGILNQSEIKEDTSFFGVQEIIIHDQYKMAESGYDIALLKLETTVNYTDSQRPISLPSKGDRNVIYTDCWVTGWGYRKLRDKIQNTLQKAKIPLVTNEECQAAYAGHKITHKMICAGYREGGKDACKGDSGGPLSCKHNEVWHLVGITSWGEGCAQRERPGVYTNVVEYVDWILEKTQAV
T1 sequence (P03951 19-387 limits assumed): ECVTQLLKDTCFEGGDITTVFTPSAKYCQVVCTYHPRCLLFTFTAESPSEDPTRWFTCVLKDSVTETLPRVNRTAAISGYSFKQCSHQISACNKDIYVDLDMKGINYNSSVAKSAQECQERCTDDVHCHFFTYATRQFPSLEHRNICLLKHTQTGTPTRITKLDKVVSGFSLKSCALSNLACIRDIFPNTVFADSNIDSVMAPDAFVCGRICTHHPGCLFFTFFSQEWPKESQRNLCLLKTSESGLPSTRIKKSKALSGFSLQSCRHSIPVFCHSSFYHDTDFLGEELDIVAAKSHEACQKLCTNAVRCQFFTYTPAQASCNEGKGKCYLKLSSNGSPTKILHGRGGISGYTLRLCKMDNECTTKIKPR
T1 sequence (P03951 388-625 limits assumed): as the sequence (P03951 388-625 C500S/K547A/R548A/R550A) above, with S113C, A160K, A161R, A163R counted along it
T2 sequence (P03951 388-625 C500S): as the sequence (P03951 388-625 C500S/K547A/R548A/R550A) above, with A160K, A161R, A163R counted along it
T6 sequence (P03951 388-625 C500S/K557A): as the sequence (P03951 388-625 C500S/K547A/R548A/R550A) above, with A160K, A161R, A163R, K170A counted along it
T3 sequence (P03951 388-625 C500S/R548A): as the sequence (P03951 388-625 C500S/K547A/R548A/R550A) above, with A160K, A163R counted along it
T5 sequence (P03951 388-625 C500S/K553A): as the sequence (P03951 388-625 C500S/K547A/R548A/R550A) above, with A160K, A161R, A163R, K166A counted along it

proteolytic activity in the presence of 16S ([1]; full length wild-type FXIa, no polybrene): approximately 4%
ΔY % (efficacy) ([1]; sulfated QAOs): 97 ± 1%
IC50 ([1]; sulfated QAOs, pH 7.4, 37° C., read-out: IC50 (converted)): ~50 µM and 52 µM
inhibition level after addition of polybrene ([4]; FXIa-CD, 16S plus 30 μM polybrene): 13.1±0.7%
proteolytic activity in the presence of 16S ([4]; FXIa-CD, no polybrene): ~6%
inhibition of FXIa-CD compared with wild-type enzyme ([4]; not shown): as potently as the wild-type enzyme
increase in IC50 versus FXIa-CD [5]: 2 fold
proteolytic activity in the presence of 16S ([6]; FXIa-CD triple mutations, no polybrene): ~5%
inhibition level after addition of polybrene ([6]; FXIa-CD with triple mutations, 16S plus 30 μM polybrene): 7.1±1.2%
reduction of potency versus FXIa-CD ([6]; Lys529, Arg530 and Arg532 replaced by Ala): approximately 5 fold
change in IC50 from wild-type FXIa-CD [7]: no change in IC50
change in IC50 from wild-type FXIa-CD [8]: no change in IC50
inhibition level after addition of polybrene [9]: 9.2±1.0%
SMILES: O=c1c2ccccc2nc(-c2ccc(OS(=O)(=O)O)cc2)n1CCCCCCn1cc(Cn2c(-c3ccc(OS(=O)(=O)O)cc3)nc3ccccc3c2=O)nn1 [Inhibitor 16S]
2 × APTT [2]: 950 µM
2 × PT [3]: >2000 µM
